Reference: article PMC5133935, “Hydrostatin-TL1, an Anti-Inflammatory Active Peptide from the Venom Gland of Hydrophis cyanocinctus in the South China Sea” (International Journal of Molecular Sciences, 2016)
“Also recorded” adds a separate entry of the source. No end group written: not given here.

What was measured:
L929 cells [1] = test: MTT assay, protection from TNF-α-mediated cytotoxicity; type: cell-based, mouse; conditions: H-TL1 1 to 1000 nM; hrTNF-α 20 ng/mL + 0.2 μg/mL actinomycin D; 18–20 h, 37 °C; MTT 490 nm; n = 5
Procedure: (§1) We used the L929 cell line, which is commonly chosen by researchers, to evaluate the effects of H-TL1 on TNF-α-mediated cytotoxicity. The cells were treated with TNF-α and 0.2 μg/mL actinomycin D in the presence of graded concentrations of H-TL1. Cell viability was evaluated using MTT assay. […] Furthermore, H-TL1 was not cytotoxic against L929 cells at 100 μM (data not shown), which far exceeds the concentration of H-TL1 used in the in vitro assays.
(§2) The H. cyanocinctus specimens were captured during September 2005 in the South China Sea near Guangdong Province, People’s Republic of China. After collection, the snakes were killed, and the venom glands were isolated and immediately frozen in liquid nitrogen until use. HEK-293 human embryonic kidney and L929 mouse fibroblast cell lines were obtained from ATCC and cultured in Dulbecco’s modified Eagle’s medium (DMEM, Sigma-Aldrich, St. Louis, MO, USA) containing 10% (v/v) heat-inactivated fetal bovine serum (FBS, Gibco, BRL, Grand Island, NY, USA) at 37 °C in an atmosphere of 5% CO2. […]
For MTT cell viability assay, L929 cells were seeded onto a 96-well plate and cultured for 12 h. […] Following incubation at 37 °C for 18–20 h, MTT solution was added, followed by incubation at 37 °C for 4 h, and then the absorbance was determined at 490 nm. […]

L929 cells [2] = type: cell-based, mouse; conditions: H-TL1 100 μM; data not shown
Procedure: as §1
as §2, with “CO2. The BLT5403 E. coli strain (used as the phage host strain) was from Novagen (Merck) and was cultured at 37 °C for propagation. The specific pathogen-free (SPF) male BALB/c and C57BL/6 mice (both 6–8 weeks old), weighing 20 ± 2 g were purchased from Shanghai SLAC Laboratory Animal Co., Ltd. (Shanghai, China).” for “CO2.”

[3] = test system: HEK-293 cells, TNF-α-mediated NF-κB and MAPKs signaling; test: Western blot, TNF-α-induced phosphorylation in HEK-293 cells; type: cell-based, human; conditions: TNF-α 20 ng/mL, 10 min
Text: The NF-κB and MAPKs pathways are key signaling pathways of TNF-α-mediated inflammation. Therefore, we analyzed the mechanisms underlying H-TL1-induced inhibition of TNF-α-mediated inflammation by Western blotting in HEK-293 cells. […] To identify the specific effects of H-TL1 on TNF-α downstream signaling, we induced IL-1β as a potent activator of NF-κB that is specific to that pathway.
(§3) The H. cyanocinctus specimens were captured during September 2005 in the South China Sea near Guangdong Province, People’s Republic of China. After collection, the snakes were killed, and the venom glands were isolated and immediately frozen in liquid nitrogen until use. HEK-293 human embryonic kidney and L929 mouse fibroblast cell lines were obtained from ATCC and cultured in Dulbecco’s modified Eagle’s medium (DMEM, Sigma-Aldrich, St. Louis, MO, USA) containing 10% (v/v) heat-inactivated fetal bovine serum (FBS, Gibco, BRL, Grand Island, NY, USA) at 37 °C in an atmosphere of 5% CO2. The BLT5403 E. coli strain (used as the phage host strain) was from Novagen (Merck) and was cultured at 37 °C for propagation. The specific pathogen-free (SPF) male BALB/c and C57BL/6 mice (both 6–8 weeks old), weighing 20 ± 2 g were purchased from Shanghai SLAC Laboratory Animal Co., Ltd. (Shanghai, China). The mice were housed in animal facilities with 50% humidity under a 12-h light-dark cycle, fed a standard pellet diet, and provided with tap water ad libitum. The animal experimental protocols in this research, including venom gland isolation and the mouse study, were approved by the Animal Care and Use Committee of the Second Military Medical University.
For Western blotting, the cell or tissue specimen extracts were resolved in a 10% SDS-PAGE gel, and then the separated proteins were transferred to a nitrocellulose filter membrane. The antigens were detected by using specific antibodies against total and phosphorylated IκB, p38, ERK, and JNK followed by incubation with the respective secondary antibodies. GAPDH was simultaneously detected as the control to compare the protein loading in each lane. The mouse monoclonal anti-IκB, mouse monoclonal anti-p-IκB (Ser32/36), rabbit monoclonal anti-ERK, and rabbit monoclonal anti-p-ERK (Thr202/Tyr204) antibodies were from Cell Signaling Technologies (Beverly, MA, USA). The mouse polyclonal anti-p-p38 (Thr180/Tyr182), rabbit polyclonal anti-p38, rabbit monoclonal anti-p-JNK (Thr183/Tyr185), and mouse monoclonal anti-JNK antibodies were from Thermo Fisher Scientific (Rockford, IL, USA). The rabbit monoclonal anti-GAPDH antibody was from Santa Cruz Biotechnology (Santa Cruz, CA, USA), and the fluorescent-labeled secondary antibodies were from Li-COR Biosciences (Lincoln, NE, USA).

[4] = test system: DSS-induced colitis in BALB/c mice; test: DSS-induced acute colitis (symptoms, DAI, body weight, spleen, colon length); type: in vivo, mouse
Text: as §3
To induce colitis, 6–8 week old male BALB/c mice were administered 2.5% DSS solution in their drinking water for 7–8 consecutive days, ad libitum. Importantly, 30–40 kDa DSS was used to establish the animal model in this study because it is known to induce more severe colitis than 5 and 500 kDa DSS [37]. The mice were concomitantly administered H-TL1 (0.5 or 1 mg/kg) once daily for 7–8 consecutive days by intraperitoneal injection. Establishment of the DSS-induced colitis was evidenced by an increase in DAI, with associated weight loss, loose stool consistency, and presence of blood in the feces. DAI was monitored during the entire experiment and was assessed according to the method described in Table 1.

[5] = test system: TNF-α expression in lung tissue of LPS-treated mice; test: Immunohistochemistry, TNF-α in lung tissue; type: in vivo, mouse; conditions: IHC 400×, n = 8, *** p < 0.001 vs. LPS group
Procedure: The LPS-induced acute shock model was established in male C57BL/6 mice (6–8 weeks old) that were randomly allocated to five groups. LPS was administered (15 mg/kg body weight) to induce acute shock. The LPS- or normal saline-treated mice were injected with 100 μL of normal saline with or without LPS intraperitoneally, while the H-TL1 and LPS-treated mice were each administered H-TL1 at three doses of 20, 40, and 80 μg/kg 1, 3, and 5 h after the LPS injection (Figure 5A). The mice were observed every 4 h to evaluate mortality.
An additional set of paraffin sections was used for immunohistochemical analysis of TNF-α expression. Sections (5-μm thick) were mounted on slides, cleaned, hydrated, blocked with endogenous peroxidase (Dako, S2001), washed with PBS, and then treated with citrate buffer ([…], pH 6.0) for target antigen retrieval. The sections were treated with a buffered blocking solution (3% BSA in PBS for 15 min), incubated for 1 h at room temperature with a primary polyclonal antibody specific to mouse TNF-α, washed with PBS, and incubated with a secondary HRP-labeled antibody (Abcam) (1:500 in PBS, v/v) at room temperature for 1 h. Then, the sections were washed again with Tris-HCl 0.05 M, pH 7.6, and subsequently incubated with 3,3′-diaminobenzidine (DAB) solution in the dark at room temperature for 10 min. […]

ATSKPSLKC-OH [H-TL1] was tested, and the “inhibition of TNF-α-induced L929 cell death” value (L929 cells [1]) was “inhibited TNF-α-induced L929 cell death in a concentration-dependent manner; also recorded: improved survival in TNF-α-treated L929 cells”, the “cytotoxicity against L929 cells” value (L929 cells [2]) was “not cytotoxic” and the “concentration inhibiting TNF-α-mediated ERK (Thr202/Tyr204) phosphorylation” value [3] was 0.8 to 1.6 µM. For the same substance, the “concentration inhibiting TNF-α-mediated p38 (Thr180/Tyr182) phosphorylation” value [3] was 0.8 to 1.6 µM, the “concentration suppressing TNF-α-mediated IκB (Ser32/36) phosphorylation” value [3] was 0.4 to 1.6 µM and the “concentration suppressing TNF-α-mediated JNK (Thr183/Tyr185) phosphorylation” value [3] was 0.4 to 1.6 µM. The “recovery / general health” value ([4]; DSS + H-TL1 1 mg/kg, n = 8) was “recovered, appearing similar in health to that of the normal group”, the “reduction in colon length” value ([4]; H-TL1 0.5 mg/kg, n = 8, * p < 0.05 vs. DSS group) was “significantly attenuated the reduction in colon length” and the “disease activity index (DAI)” value ([4]; H-TL1 1 mg/kg i.p. once daily, Days 6–8, 2.5% DSS, n = 8, * p < 0.05, ** p < 0.01 vs. DSS group) was “significantly decreased”. For the same substance, the “loss of body weight” value ([4]; H-TL1 1 mg/kg i.p. once daily, by Day 8, DSS + vehicle lost an average of 4.3 g more than normal group, n = 8) was 1.6 g, the “symptoms associated with DSS-induced colitis” value ([4]; H-TL1 1 mg/kg i.p. once daily, vs. vehicle-treated mice) was “significantly improved” and the spleen/body weight ratio ([4]; H-TL1 1 mg/kg, n = 8, * p < 0.05 vs. DSS alone) was “significantly lower”. For the same substance, the “reduction in colon length” value ([4]; H-TL1 1 mg/kg, n = 8, *** p < 0.001 vs. DSS group) was “significantly attenuated the reduction in colon length” and the “TNF-α expression in lung tissue” value [5] was “attenuated this effect”.
